Data from patent publication US20260015365A1, “PRODRUGS OF SOMATOSTATIN RECEPTORS SUBTYPE 4 (SSTR4) AGONISTS AND THEIR APPLICATIONS” (Humanwell Pharmaceutical US, Inc., priority 2024, published 2026).

Experiment: Pharmacokinetics in SD rats after intravenous injection and single oral gavage, plasma LC-MS/MS
Assay type: in vivo
Settings: male, rat
Method: SD rats (male, 6-8 weeks old, from JH Laboratory Animal Co., Ltd.) were used for intravenous injection and single oral gavage administration. Plasma samples were collected at 0.083, 0.25, 0.5, 1, 2, 4, 8, and 24 hours post-dose.
The plasma samples were obtained by centrifugation (2000 rpm, 4° C., 5 min). Samples were added to a 96-well plate and mixed with 10 volumes of acetonitrile containing an internal standard. After mixing and shaking, the mixture was centrifuged (5800 rpm, 4° C., 10 min), and the supernatant was transferred to a new 96-well plate.
The resulting solution was injected into the LC-MS/MS system. Drug concentrations in plasma were quantified using the LC-MS/MS method, and pharmacokinetic parameters were calculated accordingly.

Compound `CC(C)(NC(=O)[C@H]1[C@@H]2CNC[C@H]1C2)c1ncc2c(Br)cccn12` [compound 1] has an AUC(0-inf) (IV, 1 mg/kg) of 370 ng·h/mL, an AUC(0-t) (IV, 1 mg/kg) of 361 ng·h/mL and an MRT inf (IV, 1 mg/kg) of 0.879 h. It also gave a clearance (IV, 1 mg/kg) of 45.2 mL/min/kg, a half-life (IV, 1 mg/kg) of 0.814 h and a Vd (IV, 1 mg/kg, read-out: Vss) of 2.38 L/kg. For the same compound, the Cmax (PO, 3 mg/kg) was 36.3 ng/mL, the Tmax (PO, 3 mg/kg) was 1.42 h and the half-life (PO, 3 mg/kg) was 2.43 h.
